From patent publication US20240148821A1, “PHARMACEUTICAL USE OF CYCLIC PEPTIDE COMPOUND” (CHUGAI SEIYAKU KABUSHIKI KAISHA, priority 2021, published 2024)
Numbered stars: 1 amine (or outer) side, 2 acyl side, 3 side chain; on linkers, the order of the positions; unused ones are H or OH. Bridge positions count the residues as written; N and C are the ends. Square brackets hold non-standard residues; d marks the D form. Peptide text beside a SMILES is read from it. * marks the point of attachment. hPhe(3,5-F2-4-CF3) = N[C@@H](CCc1cc(F)c(C(F)(F)F)c(F)c1)C(=O)O; hPhe(3-Cl-4-CF3) = N[C@@H](CCc1ccc(C(F)(F)F)c(Cl)c1)C(=O)O; hPhe(3-F,4-CF3) = N[C@@H](CCc1ccc(C(F)(F)F)c(F)c1)C(=O)O; NMePhe(4-CF3) = CN[C@@H](Cc1ccc(C(F)(F)F)cc1)C(=O)O; hPhe(4-CF3) = N[C@@H](CCc1ccc(C(F)(F)F)cc1)C(=O)O; NMePhe(4-Me) = CN[C@@H](Cc1ccc(C)cc1)C(=O)O; NMedβ3hAla = C[C@H](CC(=O)[*:2])N(C)[*:1]; NMeGly(cPent) = CN[C@H](C(=O)O)C1CCCC1; NMe3Pal = CN[C@@H](Cc1cccnc1)C(=O)O; X127 = COC/C=C/CN(CC(=O)[*:2])[*:1]; NMeCha = CN[C@@H](CC1CCCCC1)C(=O)O; Gly(N-(CH2)2OEt) = CCOCCNCC(=O)O; Hyp = O=C(O)[C@@H]1C[C@@H](O)CN1; NEtLeu = CCN[C@@H](CC(C)C)C(=O)O; NMeChg = CN[C@H](C(=O)O)C1CCCCC1; NMeI = CC[C@H](C)[C@H](NC)C(=O)O; NMeT = CN[C@H](C(=O)O)[C@@H](C)O; NMeD = CN[C@@H](CC(=O)O)C(=O)O; dNMeD = CN[C@H](CC(=O)O)C(=O)O; NMeL = CN[C@@H](CC(C)C)C(=O)O; NMeV = CN[C@H](C(=O)O)C(C)C; d(β3hA) = C[C@@H](N)CC(=O)O; NMeS = CN[C@@H](CO)C(=O)O; Pip = O=C(O)[C@@H]1CCCCN1; NMeA = CN[C@@H](C)C(=O)O; Piperidide = C1CCN(*)CC1; Pyrrolidide = C1CCN(*)C1; Ac5c = NC1(C(=O)O)CCCC1; Aze = O=C(O)[C@@H]1CCN1; Ac4c = NC1(C(=O)O)CCC1; CH2CMe2OH = CC(C)(O)C*; NBuGly = CCCCNCC(=O)O; Aib = CC(C)(N)C(=O)O; Cyclopropyl = C1CC1*; Isopentyl = CC(C)CC*; Bn = c1ccc(C*)cc1; Sar = CNCC(=O)O

The compounds below were run against protein-protein interaction between Kras and SOS1 (biotin-tagged human Kras loaded with GDP, His-tagged human SOS1) (Homo sapiens (Human), UniProt P01116, G12D) (assay: Protein-protein interaction inhibition between Kras and SOS1 (KrasG12D-SOS PPI) using AlphaScreen). Conditions: not given.
Assay type: biochemical

Compound | IC50 [nM]
CC[C@H](C)[C@@H]1NC(=O)[C@H](CC(C)C)N(C)C(=O)C[C@@H](C(=O)N(C)C)N(C)C(=O)[C@H](C2CCCC2)N(C)C(=O)C2(CCCC2)NC(=O)[C@H](CC(=O)N2CCCCC2)N(C)C(=O)[C@H](CCc2ccc(C(F)(F)F)c(Cl)c2)NC(=O)CN(C)C(=O)[C@H](CC2CCCCC2)N(C)C(=O)[C@@H]2CCN2C(=O)[C@H](C)N(C)C1=O [Compound 2105] ([NMeL]I[NMeA][Aze][NMeCha][Sar][hPhe(3-Cl-4-CF3)][NMeD](Piperidide)[Ac5c][NMeGly(cPent)][NMeD]-NMe2; lactam N-11) | 2.6

Same assay, conditions: AlphaScreen; biotin-tagged human Kras loaded with GDP, His-tagged human SOS1; read-out: KRAS G12D-SOS PPI IC50

Compound | IC50 [nM]
CC[C@H](C)[C@@H]1NC(=O)[C@H](CC(C)C)N(C)C(=O)C[C@@H](C(=O)N2CCCC2)N(C)C(=O)[C@H](C(C)C)N(C)C(=O)C2(CCCC2)NC(=O)[C@@H]2CCCN2C(=O)[C@H](CCc2ccc(C(F)(F)F)c(Cl)c2)NC(=O)CN(C)C(=O)[C@H](CC2CCCCC2)N(C)C(=O)[C@@H]2CCN2C(=O)CN(C)C1=O [Compound 1670] ([NMeL]I[Sar][Aze][NMeCha][Sar][hPhe(3-Cl-4-CF3)]P[Ac5c][NMeV][NMeD]-Pyrrolidide; lactam N-11) | 1
CCCCN1CC(=O)N(C)CC(=O)N(C)[C@@H](COCCC(C)C)C(=O)N(C)CC(=O)N[C@@H](CCc2ccc(C(F)(F)F)c(Cl)c2)C(=O)N(C)[C@@H](COCC(C)(C)O)C(=O)NC(C)(C)C(=O)N(C)[C@@H](C(C)C)C(=O)N[C@H](C)CC(=O)N(C)[C@@H](CC(C)C)C(=O)N[C@@H]([C@@H](C)CC)C1=O [Compound 1505] (cyclo([Aib][NMeV][d(β3hA)][NMeL]I[NBuGly][Sar][NMeS](Isopentyl)[Sar][hPhe(3-Cl-4-CF3)][NMeS](CH2CMe2OH))) | 220
CC[C@H](C)[C@@H]1NC(=O)[C@H](CC(C)C)N(C)C(=O)C[C@@H](C)NC(=O)[C@H](C(C)C)N(C)C(=O)C2(CCCC2)NC(=O)[C@@H]2CCCN2C(=O)[C@H](CCc2ccc(C(F)(F)F)c(Cl)c2)NC(=O)CN(C)C(=O)[C@H](CC2CCCCC2)N(C)C(=O)[C@@H]2CCN2C(=O)[C@@H]2CCCCN2C1=O [Compound 416] (cyclo([Ac5c][NMeV][d(β3hA)][NMeL]I[Pip][Aze][NMeCha][Sar][hPhe(3-Cl-4-CF3)]P)) | 54
CC[C@H](C)[C@@H]1NC(=O)[C@H](CC(C)C)N(C)C(=O)C[C@@H](C(=O)N2CCCCC2)N(C)C(=O)[C@H](C2CCCCC2)N(C)C(=O)C2(CCCC2)NC(=O)CN(C/C=C/COC)C(=O)[C@H](CCc2ccc(C(F)(F)F)c(Cl)c2)NC(=O)CN(C)C(=O)[C@H](CC2CCCCC2)N(C)C(=O)CN(C)C(=O)CN(C)C1=O [Compound 2051, (11S,17S,26S,29S,33S,36S)-11-[2-[3-chloro-4-(trifluoromethyl)phenyl]ethyl]-36-cyclohexyl-17-(cyclohexylmethyl)-29-isobutyl-9-[(E)-4-methoxybut-2-enyl]-15,18,21,24,30,34,37-heptamethyl-26-[(1S)-1-methylpropyl]-33-(piperidine-1-carbonyl)-6,9,12,15,18,21,24,27,30,34,37-undecazaspiro[4.33]octatriacontane-7,10,13,16,19,22,25,28,31,35,38-undecone] ([NMeL]I[Sar][Sar][NMeCha][Sar][hPhe(3-Cl-4-CF3)][X127][Ac5c][NMeChg][NMeD]-Piperidide; lactam N-11) | 2.5
CC[C@H](C)[C@@H]1NC(=O)[C@H](CC(C)C)N(C)C(=O)C[C@@H](C)N(C)C(=O)[C@H](C2CCCC2)N(C)C(=O)C2(CCCC2)NC(=O)[C@@H]2CCCN2C(=O)[C@H](CCc2ccc(C(F)(F)F)c(F)c2)NC(=O)CN(C)C(=O)[C@H](CC2CCCCC2)N(C)C(=O)[C@@H]2CCN2C(=O)[C@H](C)N(C)C1=O [Compound 49] (cyclo([Ac5c][NMeGly(cPent)][NMedβ3hAla][NMeL]I[NMeA][Aze][NMeCha][Sar][hPhe(3-F,4-CF3)]P)) | 12
CC[C@H](C)[C@@H]1NC(=O)[C@H](CC(C)C)N(C)C(=O)C[C@@H](C(=O)N2CCCC2)N(C)C(=O)[C@H](C2CCCCC2)N(C)C(=O)C2(CCCC2)NC(=O)[C@H](Cc2cccnc2)N(C)C(=O)[C@H](CCc2ccc(C(F)(F)F)c(Cl)c2)NC(=O)CN(C)C(=O)[C@H](CC2CCCCC2)N(C)C(=O)CN(C)C(=O)CN(C)C1=O [Compound 1693] ([NMeL]I[Sar][Sar][NMeCha][Sar][hPhe(3-Cl-4-CF3)][NMe3Pal][Ac5c][NMeChg][NMeD]-Pyrrolidide; lactam N-11) | 1.7
CC[C@H](C)[C@@H]1NC(=O)[C@H](CC(C)C)N(C)C(=O)C[C@@H](C(=O)N2CCCCC2)N(C)C(=O)[C@H](C(C)C)N(C)C(=O)C2(CCCC2)NC(=O)[C@@H]2CCCN2C(=O)[C@H](CCc2ccc(C(F)(F)F)c(Cl)c2)NC(=O)CN(C)C(=O)[C@H](CC2CCCCC2)N(C)C(=O)[C@@H]2CCN2C(=O)[C@H]([C@@H](C)O)N(C)C1=O [Compound 496] ([NMeL]I[NMeT][Aze][NMeCha][Sar][hPhe(3-Cl-4-CF3)]P[Ac5c][NMeV][NMeD]-Piperidide; lactam N-11) | 10
CC[C@H](C)[C@@H]1NC(=O)[C@H](CC(C)C)N(CC)C(=O)C[C@@H](C(=O)N(C)C)N(C)C(=O)[C@H]([C@@H](C)CC)N(C)C(=O)C2(CCCC2)NC(=O)[C@@H]2CCCN2C(=O)[C@H](CCc2ccc(C(F)(F)F)c(Cl)c2)NC(=O)CN(C)C(=O)[C@H](Cc2ccc(C)cc2)N(C)C(=O)[C@@H]2CCN2C(=O)[C@H](C)NC1=O [Compound 1287] ([NEtLeu]IA[Aze][NMePhe(4-Me)][Sar][hPhe(3-Cl-4-CF3)]P[Ac5c][NMeI][NMeD]-NMe2; lactam N-11) | 1.1
CCOCCN1CC(=O)NC2(CCCC2)C(=O)N(C)[C@@H](C2CCCCC2)C(=O)N(C)[C@H](C(=O)N2CCCCC2)CC(=O)N(C)[C@@H](CC(C)C)C(=O)N[C@@H]([C@@H](C)CC)C(=O)N(C)CC(=O)N(C)CC(=O)N(C)[C@@H](CC2CCCCC2)C(=O)N(C)CC(=O)N[C@@H](CCc2ccc(C(F)(F)F)c(Cl)c2)C1=O [Compound 872, (11S,17S,26S,29S,33S,36S)-11-[2-[3-chloro-4-(trifluoromethyl)phenyl]ethyl]-36-cyclohexyl-17-(cyclohexylmethyl)-9-(2-ethoxyethyl)-29-isobutyl-15,18,21,24,30,34,37-heptamethyl-26-[(1S)-1-methylpropyl]-33-(piperidine-1-carbonyl)-6,9,12,15,18,21,24,27,30,34,37-undecazaspiro[4.33]octatriacontane-7,10,13,16,19,22,25,28,31,35,38-undecone] ([NMeL]I[Sar][Sar][NMeCha][Sar][hPhe(3-Cl-4-CF3)][Gly(N-(CH2)2OEt)][Ac5c][NMeChg][NMeD]-Piperidide; lactam N-11) | 1.9
CC[C@H](C)[C@@H]1NC(=O)[C@H](C)N(C)C(=O)C[C@@H](C)NC(=O)[C@H](CC(C)C)N(C)C(=O)C(C)(C)NC(=O)[C@H](CC(C)C)N(C)C(=O)[C@H](CCc2ccc(C(F)(F)F)cc2)NC(=O)CN(C)C(=O)[C@H]([C@@H](C)OCc2ccccc2)N(C)C(=O)CN(C)C(=O)CN(C)C1=O [Compound 1067] (cyclo([Aib][NMeL][d(β3hA)][NMeA]I[Sar][Sar][NMeT](Bn)[Sar][hPhe(4-CF3)][NMeL])) | 290
CC[C@H](C)[C@@H]1NC(=O)[C@H](CC(C)C)N(C)C(=O)C[C@H](C(=O)N2CCCC2)N(C)C(=O)[C@H](C2CCCC2)N(C)C(=O)C2(CCCC2)NC(=O)[C@@H]2CCCN2C(=O)[C@H](CCc2ccc(C(F)(F)F)c(Cl)c2)NC(=O)CN(C)C(=O)[C@H](Cc2ccc(C(F)(F)F)cc2)N(C)C(=O)[C@@H]2CCN2C(=O)[C@H](C)N(C)C1=O [Compound 1765] ([NMeL]I[NMeA][Aze][NMePhe(4-CF3)][Sar][hPhe(3-Cl-4-CF3)]P[Ac5c][NMeGly(cPent)][dNMeD]-Pyrrolidide; lactam N-11) | 74
CC[C@H](C)[C@@H]1NC(=O)[C@H](CC(C)C)N(C)C(=O)C[C@@H](C)N(C)C(=O)[C@H]([C@@H](C)CC)N(C)C(=O)C2(CCCC2)NC(=O)[C@@H]2CCCN2C(=O)[C@H](CCc2ccc(C(F)(F)F)c(F)c2)NC(=O)CN(C)C(=O)[C@H](C2CCCC2)N(C)C(=O)[C@@H]2CCN2C(=O)[C@H](C)N(C)C1=O [Compound 909] (cyclo([Ac5c][NMeI][NMedβ3hAla][NMeL]I[NMeA][Aze][NMeGly(cPent)][Sar][hPhe(3-F,4-CF3)]P)) | 20
CC[C@H](C)[C@@H]1NC(=O)[C@H](COC2CC2)N(C)C(=O)C[C@@H](C(=O)N2CCCCC2)N(C)C(=O)[C@H](C(C)C)N(C)C(=O)C2(CCCC2)NC(=O)[C@@H]2CCCN2C(=O)[C@H](CCc2ccc(C(F)(F)F)c(Cl)c2)NC(=O)CN(C)C(=O)[C@H](CC2CCCCC2)N(C)C(=O)[C@@H]2CCN2C(=O)[C@H](C)N(C)C1=O [Compound 1764] ([NMeS](Cyclopropyl)I[NMeA][Aze][NMeCha][Sar][hPhe(3-Cl-4-CF3)]P[Ac5c][NMeV][NMeD]-Piperidide; lactam N-11) | 3.2
CC[C@H](C)[C@@H]1NC(=O)[C@H](CC(C)C)N(C)C(=O)C[C@@H](C(=O)N2CCCCC2)N(C)C(=O)[C@H](CC(C)C)NC(=O)C(C)(C)N(C)C(=O)[C@H](COc2ccccc2)NC(=O)[C@H](Cc2cccc(I)c2)NC(=O)CN(C)C(=O)[C@H](Cc2ccc(C)cc2)N(C)C(=O)[C@@H]2CCN2C(=O)CN(C)C1=O [Compound 2114, (6S,9S,13S,16S,22S,25S,31S,34S)-25-[(3-iodophenyl)methyl]-9,16-diisobutyl-4,10,14,19,19,20,29,32-octamethyl-6-[(1S)-1-methylpropyl]-22-(phenoxymethyl)-13-(piperidine-1-carbonyl)-31-(p-tolylmethyl)-1,4,7,10,14,17,20,23,26,29,32-undecazabicyclo[32.2.0]hexatriacontane-2,5,8,11,15,18,21,24,27,30,33-undecone] | 110
CCO[C@@H]1C[C@H]2C(=O)NC3(CCC3)C(=O)N(C)[C@@H](C3CCCCC3)C(=O)N(C)[C@H](C)CC(=O)N(C)[C@@H](CC(C)C)C(=O)N[C@@H]([C@@H](C)CC)C(=O)N(C)[C@@H](C)C(=O)N3CC[C@H]3C(=O)N(C)[C@@H](Cc3ccc(C(F)(F)F)cc3)C(=O)N(C)CC(=O)N[C@@H](CCc3cc(F)c(C(F)(F)F)c(F)c3)C(=O)N2C1 [Compound 365] (cyclo([Ac4c][NMeChg][NMedβ3hAla][NMeL]I[NMeA][Aze][NMePhe(4-CF3)][Sar][hPhe(3,5-F2-4-CF3)][Hyp](Et))) | 38
